Measurements taken from patent US4333942A, “Anti-depressant and analgesic 4-phenoxypiperidines” (BYK Gulden Lomberg Chemische Fabrik GmbH, priority 1979, dated 1982).
Read-outs that look alike come from different tables or passages of the source.

Assays:
Reserpine ptosis = experiment: Antiptotic action (Reserpine antagonism); format: in vivo, female albino mice NMRI; settings: Mus musculus
Experimental: (§1) All the experiments are carried out on female albino mice NMRI of 20 to 30 g body weight. 5 to 20 animals are employed per dose and the dose/response relationship are determined.
Antiptotic action (Reserpine antagonism)
Subcutaneous administration of 2 mg/kg of reserpine to albino mice causes ptosis in the course of several hours [Reserpine Ptosis, Domenjoz and Theobald (1959), Arch, Int. Pharmacodyn. 120,450]. The test substances are administered to the animals orally in various doses 3 hours before the administration of reserpine. The intensity of ptosis is graded by a rating scale 3-2-1-0 (complete, moderate, slight, no ptosis) in the 2nd, 3rd and 4th hour after administration of the reserpine (that is 5, 6 and 7 hours after administration of the substance). The substances tested antagonize the ptosis according to the dose. The ED50 of the antagonistic action is evaluated in comparison to the daily reserpine control.

thermal pain = experiment: Tail flick test (analgesia); format: in vivo, female albino mice NMRI; settings: Mus musculus; oral; dose which prolongs the reaction time by 50%; mice; read-out: Analgesic action, tail flick test ED50
Experimental: as §1
(a) Tail flick test: Albino mice are exposed to thermal pain, from a focused heat ray, at the tail root, and the time which elapses before the tail is drawn away is recorded. This time is usually in the range of from 4 to 5 seconds. The substances tested cause a delayed reaction to the thermal pain, that is a reduced thermal pain reaction. The dose which prolongs the reaction time by 50% is determined. Literature: D'Amour, F. E., and Smith, D. L., (1941) J. Pharmacol. Exp. Ther. 72, 74.

[1] = Determination of the lethal effect (acute toxicity); parameters: species or system female albino mice NMRI; settings: mouse, in vivo; oral; mice; observation time 7 days
Experimental: as §1
The mice were given food (Altromin®) and water ad libitum. The substances to be tested were administered orally as solutions of varying concentration in a volume of from 10 to 20 ml/kg using a stomach tube; 5 animals per dose were kept in Macrolon cages, type II. The observation time was 7 days. […] Literature: Litchfield and Wilkoxon ([…]) J. Pharm. Exp. Therap. 96/2, 99.

acetic acid writhing = experiment: Acetic acid writhing test (analgesia); format: in vivo, female albino mice NMRI; settings: Mus musculus, read-out: Analgesic action, acetic acid writhing test ED50
Experimental: as §1
(b) Writhing test (acetic acid writhing): intraperitoneal injection of 0.2 ml/20 g of body weight of mouse of a 0.75% strength acetic acid solution induces in albino mice a typical syndrome proceeding over the body with dorsal flection, called "writhing". These "writhes" (occurring in the course of the first half hour after administration) are counted over a period of 5 to 20 minutes after administration of acetic acid. The substances tested (administered 30 minutes before the acetic acid injection) cause a reduction in the number of writhing syndromes. The dose which reduces the number thereof by 50%, relative to the daily control, is determined. Literature: Koster, Anderson, de Beer (1959) Fed.Proc. 18, 412.

[2] = po, 5 h, read-out: Antiptotic action, Reserpine antagonism ED50, 5 hours after administration
[3] = po, 6 h, read-out: Antiptotic action, Reserpine antagonism ED50, 6 hours after administration
[4] = po, 7 h, read-out: Antiptotic action, Reserpine antagonism ED50, 7 hours after administration
[5] = read-out: Antiptotic action, Reserpine antagonism ED50, oral, 5 hours after administration, reserpine 2 mg/kg s.c., mice
[6] = oral, 6 hours after administration, reserpine 2 mg/kg s.c., mice, read-out: Antiptotic action, Reserpine antagonism ED50, 6 hours after administration
[7] = oral, 7 hours after administration, reserpine 2 mg/kg s.c., mice, read-out: Antiptotic action, Reserpine antagonism ED50, 7 hours after administration
[8] = oral, 30 minutes before acetic acid, dose which reduces writhes by 50%, mice

Row | Compound | ED50 (Reserpine ptosis; [2]) [mg/kg] | ED50 (Reserpine ptosis; [3]) [mg/kg] | ED50 (Reserpine ptosis; [4]) [mg/kg] | ED50 (thermal pain) [mg/kg] | LD50 at 168 h [1] [mg/kg] | ED50 (Reserpine ptosis; [5]) [mg/kg] | ED50 (Reserpine ptosis; [6]) [mg/kg] | ED50 (Reserpine ptosis; [7]) [mg/kg] | ED50 (acetic acid writhing; [8]) [mg/kg] | ED50 (acetic acid writhing; po) [mg/kg]
1 | CN1CCC(Oc2ccccc2)(c2ccccc2)CC1 [compound 2] | 2.1 | 2.7 | 4 | 35 | 220 |  |  |  |  | 
2 | c1ccc(OC2(c3ccccc3)CCNCC2)cc1 [compound 8] |  |  |  | 25 | > 200 | ~25 | > 50 | > 50 | 50 | 
3 | CC(=O)Nc1ccc(OC2(c3ccccc3)CCN(C)CC2)cc1 [compound 10] | < 10 | < 10 | < 10 | 12.5 | 100 to 200 |  |  |  |  | 10
4 | CN1CCC(Oc2ccc(N)cc2)(c2ccccc2)CC1 [compound 5] | 0.7 | 3 | 10 | 12 | 160 |  |  |  |  | 7
5 | CN1CCC(Cc2ccccc2)(Oc2ccccc2)CC1 [compound 7] |  |  |  | 55 | 300 |  |  |  | 27 | 
6 | CC(C)(C)N1CCC(Oc2ccc([N+](=O)[O-])cc2)(c2ccccc2)CC1 [Serial No. 9, 1-(tert.-Butyl)-4-(4-nitrophenoxy)-4-phenylpiperidine] |  |  |  |  |  |  |  |  |  | 10
7 | CN(C)CCCN1c2ccccc2CCc2ccccc21 [Serial No. 1, Imipramine, reference compound] |  |  |  | > 50 |  | 18 | 50 | 100 | > 100 | 
8 | CN1CCC(Cc2ccccc2)(Oc2ccc(N)cc2)CC1 [compound 4] |  |  |  | 2 | 180 | 9.5 | 24 | 50 | 27 | 
9 | CN1CCC(Cc2ccccc2)(Oc2ccc([N+](=O)[O-])cc2)CC1 [compound 6] |  |  |  | > 75 | 290 |  |  |  | 35 | 
10 | CN1CCC(Oc2ccc([N+](=O)[O-])cc2)(c2ccccc2)CC1 [compound 3] | 0.7 | 2 | 5.8 | 50 | 140 |  |  |  |  | 
